For one assay, the target named is AAC(3)-XIa (Corynebacterium striatum, UniProt A0ABX7DED9). The assay can be described thus: Isothermal titration calorimetry. Type of assay: binding. Conditions: 25 °C, with coenzyme A, n = 3. On the procedure: (§1) To accurately measure protein ligand interactions, the concentration of our proteins of interest was measured spectrophotometrically using the NanoDrop OneC Spectrometer (Thermo Scientific). ITC experiments were performed on a MicroCal iTC 200 (General Electric) at 25 °C with stirring at 750 rpm. Unique buffer solutions were used for each enzyme. AAC(3)-Ia was prepared in 50 mM HEPES, pH 7, and 150 mM NaCl. AAC(3)-IIIa was prepared in 120 mM Tris, pH 7.5, and 150 mM NaCl. AAC(3)-XIa was prepared in 20 mM Tris, pH 7.5, and 150 mM NaCl. The cell contained 550 μM AAC(3)-Ia, 350 μM AAC(3)-IIIa, or 450 μM AAC(3)-XIa. All experiments also contained 5000 μM of coenzyme A trilithium salt in the cell. […] In all ITC experiments, aminoglycosides were prepared in the same buffering solution as the target protein. The ligands were injected 29 times ([…] per injection) with a 180 s interval between injections. Results were analyzed using ORIGIN software version 7E (MicroCal) using the molecular weight of a single protomer of each protein and fitted with a two-set of sites binding model (Supplementary Fig. 5). Data analysis was performed in Microsoft Excel and GraphPad5 software. One-way ANOVA and Tukey’s multiple comparison tests were used to determine the statistical significance of binding affinities.
(In ITC the heat of successive injections is recorded.)

For a further assay, the target named is AAC(3)-Ia (Acinetobacter baumannii, UniProt D7R512). As to the kind of experiment: Isothermal titration calorimetry. The class given is binding. On the procedure:
as §1

Where [1] appears, read: AAC(3)-XIa, second set of sites.
Where [2] appears, read: AAC(3)-Ia, first set of sites, 25 °C, with coenzyme A, n = 3.
Where [3] appears, read: AAC(3)-Ia, second set of sites, 25 °C, with coenzyme A, n = 3.

The results in this text go back to publication PMC12378234, “Enzyme-mediated aminoglycoside resistance without target mimicry” (Communications Chemistry, 2025).

Where “and” joins values, the source holds several entries; their conditions need not be identical. Identical values can stand only once.

In general, Kd refers to the constant that tells how readily two partners part at equilibrium. Low readings indicate tighter binding, high ones weaker binding. As to `CN[C@@H]1[C@@H](O)[C@@H](O[C@@H]2[C@@H](O)[C@H](O[C@H]3OC(CN)=CC[C@H]3N)[C@@H](N)C[C@H]2N)OC[C@]1(C)O` [Sisomicin, sisomicin], the TΔS at AAC(3)-XIa (AAC(3)-XIa, first set of sites) was -4.51 ± 0.378 kcal/mol; on AAC(3)-Ia (setting [2]), 3.3 ± 0.427 kcal/mol. For the same compound, the ΔG on AAC(3)-XIa (AAC(3)-XIa, first set of sites) was -8.12 ± 0.53 kcal/mol; on AAC(3)-Ia (setting [2]) it was -6.25 ± 0.596 kcal/mol. Further, the ΔH at AAC(3)-XIa (AAC(3)-XIa, first set of sites) was −12,600 ± 372 cal/mol; on AAC(3)-Ia (setting [2]) it was -2.95 ± 0.416 kcal/mol. Moreover, the “N (sites)” value on AAC(3)-XIa (AAC(3)-XIa, first set of sites, two-set of sites model) came out at 0.51 ± 0.01 sites; on AAC(3)-Ia (AAC(3)-Ia, first set of sites, two-set of sites model, 25 °C, with coenzyme A, n = 3), 0.50 ± 0.06 sites. The figures for the “N2 (sites)” value at AAC(3)-XIa (setting [1]) and on AAC(3)-Ia (setting [3]) were 0.36 ± 0.04 sites and 0.54 ± 0.01 sites, respectively. Besides, the “TΔS 2” value turned out to be 7.295 ± 1.615 kcal/mol at AAC(3)-XIa (setting [1]) and 3.45 ± 0.795 kcal/mol on AAC(3)-Ia (setting [3]). For the same compound, the results for the “ΔG 2” value on AAC(3)-XIa (setting [1]) and at AAC(3)-Ia (setting [3]) were -6.237 ± 2.237 kcal/mol and -5.66 ± 1.1 kcal/mol, respectively. Further, the figures for the “ΔH 2” value on AAC(3)-XIa (setting [1]) and at AAC(3)-Ia (setting [3]) were 1.058 ± 1.548 kcal/mol and -2.21 ± 0.763 kcal/mol, respectively. Besides, the Kd at AAC(3)-XIa (Kd2, AAC(3)-XIa, second set of sites) is 27.1 ± 4.2 µM; at AAC(3)-XIa (Kd, AAC(3)-XIa, first set of sites, two-set of sites model) it was 1.1 ± 0.02 µM; at AAC(3)-Ia (Kd2, AAC(3)-Ia, second set of sites, 25 °C, with coenzyme A, n = 3) it was 71.8 ± 7.5 µM; on AAC(3)-Ia (Kd, AAC(3)-Ia, first set of sites, two-set of sites model, 25 °C, with coenzyme A, n = 3), 26 ± 0.6 µM; on AAC(3)-Ia (Kd, AAC(3)-Ia, individual replicates, raw data behind Fig. 6), 26.2 µM and 24.9 µM and 27 µM.
